“Also recorded” adds a separate entry of the source. *1 amine or outer side, *2 acyl side, *3 side chain or, on linkers, in order; H or OH if unused. Where a SMILES comes first, the peptide text is derived from it. Side-chain parts run from the residue outwards. The star is where a group is joined. γGlu = O=C(O)[C@H](CCC(=O)[*:2])N[*:1]; Palmitoyl = CCCCCCCCCCCCCCCC(=O)*
Assays:
[1] = system: MDA‐MB‐231 LM1 breast cancer; assay: MDA‐MB‐231 LM1 CDX mouse model; assay type: in vivo
Protocol: Animal experiments were conducted in accordance with ethical guidelines, and all protocols were approved by the Institutional Animal Care and Use Committee under Hanyang University (approval numbers, 2014‐0016A, 2018‐0049A, 2018‐0207A, and 2019‐0169A), Chung‐Ang University (approval number, 2015‐00022), Chungbuk University (approval number, CBNUA‐1072‐17‐02), and Konkuk University (approval number, KU17130). To establish xenograft mice models, Hep3B, A431, U343, and PC9 cells were subcutaneously injected into the flank of Balb/c nude mice. For the MDA‐MB‐231 (LM1) cell line, it was implanted into the mammary fat pad of immunodeficient mice (NPG mice). […] Tumor volume was calculated using the formula of length × width^2)/2. […] The in vivo administration amount was determined based on the concentration of ACP52C confirmed at the cellular level, which was 2 µM. […] For ACP52C derivatives, the amount was adjusted to ensure a similar molar quantity of peptide injection, taking their molecular weights into account. For instance, in the case of ACP52CGK, ≈1.67 times the quantity was used compared to ACP52C to achieve an equivalent molar quantity. […] Hematoxylin and eosin (H&E)‐stained tissue sections were analyzed and photographed, and the representative histological images were recorded. […]

[2] = Storage stability of peptide activity; assay type: physicochemical; details: stored in powder or solution form in a deep freezer
[3] = system: Hep3B; assay: Hep3B CDX mouse model; assay type: in vivo
Protocol: Animal experiments were conducted in accordance with ethical guidelines, and all protocols were approved by the Institutional Animal Care and Use Committee under Hanyang University (approval numbers, 2014‐0016A, 2018‐0049A, 2018‐0207A, and 2019‐0169A), Chung‐Ang University (approval number, 2015‐00022), Chungbuk University (approval number, CBNUA‐1072‐17‐02), and Konkuk University (approval number, KU17130). To establish xenograft mice models, Hep3B, A431, U343, and PC9 cells were subcutaneously injected into the flank of Balb/c nude mice. For the MDA‐MB‐231 (LM1) cell line, it was implanted into the mammary fat pad of immunodeficient mice (NPG mice). Once tumors were successfully established, the animals were randomly divided into a control (vehicle) group and an experimental (drug) group. When the tumor volume reached 100 cubic millimeters, either saline or an appropriate concentration of drugs was administrated into mice via tail vein every 3 or 5 days for appropriate duration. Tumor volume was calculated using the formula of length × width^2)/2. To generate an orthotopic liver cancer mice model, 75 mg kg^−1 (mpk) of DEN was intraperitoneally injected weekly for 3 weeks into C57BL/6 mice, followed by 100 mpk of DEN weekly for the subsequent 3 weeks. After 37 weeks of liver cancer induction, mice received either saline or an appropriate concentration of drugs via the tail vein every 5 days for the designated duration. The in vivo administration amount was determined based on the concentration of ACP52C confirmed at the cellular level, which was 2 µM. Assuming an average mouse weight of 30 grams and considering that ≈5.8% of body weight constitutes blood volume,^[ [49] ^] it was calculated that the blood concentration of ACP52C should be ten times the GI50 concentration in cell culture conditions. […] For ACP52C derivatives, the amount was adjusted to ensure a similar molar quantity of peptide injection, taking their molecular weights into account. For instance, in the case of ACP52CGK, ≈1.67 times the quantity was used compared to ACP52C to achieve an equivalent molar quantity. At the time of sacrifice, major organs and tumors were removed and weighed, and blood was extracted. For histological analysis, major organs and tumors of mice were immediately fixed in 10% formalin neutral buffer solution, dehydrated through a graded series of ethanol treatments, treated with xylene, paraffin embedded, and cut into 4 µm sections. Hematoxylin and eosin (H&E)‐stained tissue sections were analyzed and photographed, and the representative histological images were recorded. Liver nodules in the DEN orthotopic liver cancer model were estimated by measuring the ratio of tumor areas over entire liver tissues in the tissue section using an Image J (version 1.51) software at 40× magnification. Complete blood count (CBC) analysis was conducted using a Hematology analyzer (scil Vet ABC) from the extracted blood.

[4] = Nanoparticle formation in solution (DLS); assay type: physicochemical; details: DLS in saline, 25 °C, each sample analyzed five times
Protocol: For determining the dimensions and nanoparticle formation of the peptides in solution, DLS analysis was performed using the Scatteroscope I nanoparticle size analyzer (K‐One, SOS1). Saline served as the negative control, and all experiments were conducted at a constant temperature of 25 °C. Each sample was analyzed five times, and the resulting data were graphically presented, incorporating all five profiles obtained from the experiments. The purity and dimer formation of the peptides were analyzed using HPLC and LC‐MS. HPLC analysis was carried out using a Shimadzu HPLC LabSolution equipped with a pump, an autosampler, a column oven, and a UV–vis detector. Chromatographic separation was performed on a Shimadzu C18 analytical column at 35 °C, with an injection volume of 20 µL (0.5 mg mL^−1). The mobile phases consisted of 0.05% trifluoroacetic acid (TFA) in water (A) and 0.05% TFA in acetonitrile (B). The flow rate was maintained at 1 mL min^−1, and the gradient program was as follows: 20–80% B over 30 min. Ionization was achieved using electrospray ionization (ESI) in positive mode with selected reaction monitoring (SRM). Mass spectrometry analysis was performed with an ESI source in the positive‐ionization mode.

[5] = administered at five‐day intervals
[6] = intravenous injection at three‐day intervals, Sorafenib orally once daily as positive control

Compound	anti‐tumor efficacy ([1]; administered at five‐day intervals, NPG mice)	loss of activity on storage [2]	anti‐tumor activity [3, 5]	anti‐tumor activity [3, 6]	nanoparticle formation [4]	tumor weight ([1]; intravenous injection every 2 or 3 days from day 14)
CCCCCCCCCCCCCCCC(=O)N[C@@H](CCC(=O)NCCCC[C@H](NC(=O)CNC(=O)CNC(=O)[C@@H]1CCCN1C(=O)[C@H](CCCNC(=N)N)NC(=O)[C@H](CCC(N)=O)NC(=O)[C@@H]1CCCN1C(=O)[C@H](Cc1ccc(O)cc1)NC(=O)[C@H](CC(N)=O)NC(C)=O)C(=O)NCC(=O)NCC(=O)N[C@@H](CS)C(=O)N[C@@H](CCCNC(=N)N)C(=O)NCC(=O)N[C@@H](CC(=O)O)C(=O)N[C@@H](CCCCN)C(=O)NCC(=O)N1CCC[C@H]1C(=O)N[C@@H](CC(=O)O)C(=O)N[C@@H](CS)C(N)=O)C(=O)O [ACP52CGK] (Ac-NYPQRPGGK([γGlu-Palmitoyl])GGCRGDKGPDC-NH2)	remarkable anti‐tumor efficacy	gradually lose their activity over one year	maintained its activity; also recorded: remarkable anti‐tumor efficacy	activity similar to that of ACP52C	significant reduction in nanoparticle formation	
CC(=O)N[C@@H](CC(N)=O)C(=O)N[C@@H](Cc1ccc(O)cc1)C(=O)N1CCC[C@H]1C(=O)N[C@@H](CCC(N)=O)C(=O)N[C@@H](CCCNC(=N)N)C(=O)N1CCC[C@H]1C(=O)N[C@@H](CS)C(=O)N[C@@H](CCCNC(=N)N)C(=O)NCC(=O)N[C@@H](CC(=O)O)C(=O)N[C@@H](CCCCN)C(=O)NCC(=O)N1CCC[C@H]1C(=O)N[C@@H](CC(=O)O)C(=O)N[C@@H](CS)C(N)=O [ACP52C] (Ac-NYPQRPCRGDKGPDC-NH2)		gradually lose their activity over one year	reduced anti‐tumor activity compared to the three‐day interval administration	superior anti‐tumor activity compared to Sorafenib	majority of ACP52C exists in the form of nanoparticles in saline	significantly reduced tumor weight

From publication PMC10667816, “A Cell‐Penetrant Peptide Disrupting the Transcription Factor CP2c Complexes Induces Cancer‐Specific Synthetic Lethality” (Advanced Science, 2023)
